The target of experiment [1] is T1, Estrogen receptor (Homo sapiens) (UniProt P03372).
T1 sequence (whole entry): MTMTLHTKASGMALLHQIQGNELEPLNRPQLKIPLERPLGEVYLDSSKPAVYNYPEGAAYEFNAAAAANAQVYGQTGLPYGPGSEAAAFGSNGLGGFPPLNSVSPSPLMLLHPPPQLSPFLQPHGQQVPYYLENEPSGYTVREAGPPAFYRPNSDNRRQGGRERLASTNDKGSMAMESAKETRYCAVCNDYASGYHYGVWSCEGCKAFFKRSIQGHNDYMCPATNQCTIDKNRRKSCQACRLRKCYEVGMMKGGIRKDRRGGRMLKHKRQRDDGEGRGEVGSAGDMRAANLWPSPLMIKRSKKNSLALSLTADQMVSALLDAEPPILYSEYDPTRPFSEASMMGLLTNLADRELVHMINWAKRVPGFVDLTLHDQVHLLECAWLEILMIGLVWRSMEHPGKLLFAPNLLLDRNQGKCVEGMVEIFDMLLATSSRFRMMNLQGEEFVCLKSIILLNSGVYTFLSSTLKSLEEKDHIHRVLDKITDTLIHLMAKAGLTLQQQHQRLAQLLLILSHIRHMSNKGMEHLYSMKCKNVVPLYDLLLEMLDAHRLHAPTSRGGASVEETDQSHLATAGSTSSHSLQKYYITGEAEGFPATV
The experiment can be described thus: Displacement of fluorescein-labeled estradiol from human recombinant ERalpha at 0.2 uM by fluorescence polarization assay. In general terms: Fluorescence polarisation rises when a labelled molecule tumbles more slowly, as on binding a larger partner.

For experiment [2], the target named is T2, Estrogen receptor beta (Homo sapiens, UniProt Q92731). The experiment can be described thus: Displacement of fluorescein-labeled estradiol from human recombinant ERbeta at 1 uM by fluorescence polarization assay.
The target in experiment [3] is T2, Estrogen receptor beta. The experiment is described as follows: Displacement of fluorescein-labeled estradiol from human recombinant ERbeta at 0.2 uM by fluorescence polarization assay.
Experiment [4] deals with T1, Estrogen receptor (Homo sapiens). The experiment is described as follows: Displacement of fluorescein-labeled estradiol from human recombinant ERalpha at 5 uM by fluorescence polarization assay.
Experiment [5] deals with T2, Estrogen receptor beta. The experiment is described as follows: Displacement of fluorescein-labeled estradiol from human recombinant ERbeta at 5 uM by fluorescence polarization assay.
Experiment [6] deals with T1, Estrogen receptor (Homo sapiens). The experiment is described as follows: Displacement of fluorescein-labeled estradiol from human recombinant ERalpha at 1 uM by fluorescence polarization assay.

T2 sequence (Q92731 whole entry): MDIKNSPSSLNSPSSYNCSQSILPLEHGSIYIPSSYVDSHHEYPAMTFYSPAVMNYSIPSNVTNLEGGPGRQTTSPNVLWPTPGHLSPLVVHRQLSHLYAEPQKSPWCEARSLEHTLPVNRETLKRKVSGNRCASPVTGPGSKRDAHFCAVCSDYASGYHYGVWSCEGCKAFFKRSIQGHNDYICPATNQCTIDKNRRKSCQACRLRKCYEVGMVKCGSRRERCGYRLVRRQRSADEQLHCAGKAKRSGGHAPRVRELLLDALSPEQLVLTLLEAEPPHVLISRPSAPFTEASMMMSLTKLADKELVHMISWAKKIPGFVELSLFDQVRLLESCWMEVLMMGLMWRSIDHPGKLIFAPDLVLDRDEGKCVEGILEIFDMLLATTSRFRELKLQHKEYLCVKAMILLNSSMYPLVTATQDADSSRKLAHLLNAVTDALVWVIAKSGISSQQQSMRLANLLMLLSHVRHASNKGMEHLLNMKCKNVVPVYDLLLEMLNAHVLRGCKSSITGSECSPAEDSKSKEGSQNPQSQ

Take `C=C(CCCC)[C@@H](NC(=O)c1cccs1)c1ccccc1`: the Activity in experiment [1] was 67%; at Estrogen receptor beta [2], -3%; on Estrogen receptor beta [3], -1%; in experiment [4], 54%; at Estrogen receptor beta [5] it was 8%; in experiment [6] it was 40%.

`CCC/C=C(\CCC)[C@@H](NP(=O)(c1ccccc1)c1ccccc1)c1ccc(C(F)(F)F)cc1`: the Activity in experiment [1] came to 55%; at Estrogen receptor beta [2] it was 16%; on Estrogen receptor beta [3], 8%; in experiment [4] it was 79%; on Estrogen receptor beta [5] it was 27%; in experiment [6], 65%.

Turning to `CCC[C@@H]1C[C@@]1(CCC)[C@@H](NS(=O)(=O)c1cccc2cccnc12)c1ccc(-c2ccccc2)cc1`, the Activity in experiment [1] was found to be 58%; on Estrogen receptor beta [2], 17%; at Estrogen receptor beta [3] it was 15%; in experiment [4] it was 88%; at Estrogen receptor beta [5] it was 29%; in experiment [6], 70%.

`CCC[C@@H]1C[C@@]1(CCC)[C@@H](NP(=O)(c1ccccc1)c1ccccc1)c1ccc(Cl)cc1`: the Activity is 5% in experiment [1]; -1% at Estrogen receptor beta [2]; 2% at Estrogen receptor beta [3]; -44% in experiment [4]; -5% at Estrogen receptor beta [5]; 30% in experiment [6].

Regarding `CCCC[C@@H]1C[C@H]1[C@@H](NC(=O)Cc1ccccc1)c1ccc(-c2ccccc2)cc1`, the Activity in experiment [1] was 47%; at Estrogen receptor beta [2] it was 8%; at Estrogen receptor beta [3] it was 2%; in experiment [4], 28%; at Estrogen receptor beta [5], 14%; in experiment [6], 33%.

Take `CCCC[C@@H]1C[C@H]1[C@@H](NC(=O)c1cccnc1)c1ccc(-c2ccccc2)cc1`: the Activity worked out at 64% in experiment [1]; 2% on Estrogen receptor beta [2]; 2% on Estrogen receptor beta [3]; 53% in experiment [4]; 10% on Estrogen receptor beta [5]; 63% in experiment [6].

As to `CCCC[C@@H]1C[C@H]1[C@@H](NC(=O)c1ccccc1)c1ccc(C(F)(F)F)cc1`, the Activity in experiment [1] is 32%; on Estrogen receptor beta [2] it was 1%; at Estrogen receptor beta [3], -9%; in experiment [4], 48%; on Estrogen receptor beta [5], 13%; in experiment [6] it was 33%.

On to `CCC/C=C(\CCC)[C@@H](NC(=O)CC(C)C)c1ccccc1`, for which the Activity was 69% in experiment [1]; 3% at Estrogen receptor beta [2]; -4% at Estrogen receptor beta [3]; 110% in experiment [4]; 22% on Estrogen receptor beta [5]; 84% in experiment [6].

Turning to `CCCC[C@@H]1C[C@H]1[C@@H](NC(=O)c1ccco1)c1ccccc1`, the Activity is 63% in experiment [1]; 7% on Estrogen receptor beta [2]; 8% at Estrogen receptor beta [3]; 91% in experiment [4]; 20% on Estrogen receptor beta [5]; 65% in experiment [6].

As for `CCC/C=C(\CCC)[C@@H](NC(=O)c1ccccc1)c1ccccc1`, the Activity in experiment [1] worked out at 51%; on Estrogen receptor beta [2], 6%; at Estrogen receptor beta [3], 8%; in experiment [4], 82%; at Estrogen receptor beta [5] it was 17%; in experiment [6], 56%.

Consider `CCC/C=C(\CCC)[C@@H](NS(=O)(=O)c1ccc(C(Cl)(Cl)Cl)cc1)c1ccccc1`, for which the Activity in experiment [1] is 42%; at Estrogen receptor beta [2], 13%; at Estrogen receptor beta [3] it was 6%; in experiment [4], 95%; at Estrogen receptor beta [5], 42%; in experiment [6], 61%.

On to `CCCC[C@@H]1C[C@H]1[C@@H](NC(=O)c1ccccc1)c1ccc(-c2ccccc2)cc1`, for which the Activity is 72% in experiment [1]; 31% on Estrogen receptor beta [2]; 26% on Estrogen receptor beta [3]; 46% on Estrogen receptor beta [5]; 77% in experiment [6].

(Values after ChEMBL document CHEMBL1137758, “Biphenyl C-cyclopropylalkylamides: New scaffolds for targeting estrogen receptor beta” (Bioorg Med Chem Lett, 2009).)
